# Results as given in US20120022045A1, “BRIDGED COMPOUNDS AS HIV INTEGRASE INHIBITORS” (priority 2009, published 2012).
# Like-named read-outs stand apart in the source and are kept apart here.
# How the values were obtained:
# Assay type in all cases: cell-based
# HIV-1 = test: Inhibition of acute HIV-1 infection of T-lymphoid cells (spread assay); details: 10% FBS, read-out: IC95 (nM) in the presence of 10% FBS
# Description: Assays for the inhibition of acute HIV-1 infection of T-lymphoid cells were conducted in accordance with Vacca, J. P. et al., Proc. Natl. Acad. Sci. USA 1994, 91: 4096.
# [1] = system: HIV-1 integrase mutant virus Q148R; test: Single cycle infectivity assay in HeLa P4-2 cells, integrase mutant Q148R virus; details: fold shift in IC50 versus wild type IIIB
# Description: (§1) An assay for measuring the inhibition of acute HIV-1 infection with HeLa P4-2 cells in a single cycle infectivity assay was conducted using methods described in Joyce et al., J. Biol. Chem. 2002, 277: 45811, Hazuda et al., Science 2000, 287: 646, and Kimpton et al, J. Virol. 1992, 66: 2232. Proviral plasmids encoding viruses containing specific mutations in the integrase gene (N155H, Q148R, Y143R, E92Q, or G140S/Q148H) were generated by site-directed mutagenesis, and viruses were produced by transfecting 293T cells with the appropriate proviral plasmids.
# [2] = system: HIV-1 integrase mutant virus Y143R; test: Single cycle infectivity assay in HeLa P4-2 cells, integrase mutant Y143R virus; details: fold shift in IC50 versus wild type IIIB
# Description: as §1
# [3] = system: HIV-1 integrase mutant virus N155H; test: Single cycle infectivity assay in HeLa P4-2 cells, integrase mutant N155H virus; details: fold shift in IC50 versus wild type IIIB
# Description: as §1
# [4] = system: HIV-1 integrase mutant virus G140S/Q148H; test: Single cycle infectivity assay in HeLa P4-2 cells, integrase mutant G140S/Q148H virus; details: fold shift in IC50 versus wild type IIIB
# Description: as §1
# HIV-1 wild type IIIB = test: Single cycle infectivity assay in HeLa P4-2 cells, wild type virus
# Description: as §1
# [5] = Human immunodeficiency virus 1, T-lymphoid
# [6] = Human immunodeficiency virus 1, IIIB, HeLaP4-2, wild type IIIB
Compound,IC95 (HIV-1) [nM],Q148R (shift) [1] [fold],Y143R (shift) [2] [fold],N155H (shift) [3] [fold],G140S/Q148H (shift) [4] [fold],IC50 (HIV-1 wild type IIIB; wild type IIIB) [nM],IC95 (HIV-1; [5]) [nM],IC50 (HIV-1 wild type IIIB; [6]) [nM]
"CCC1C2CCC(N(C)C(=O)C(=O)N(C)C)(CO2)c2nc(C(=O)NCc3ccc(F)cc3)c(O)c(=O)n21 (single isomer, unassigned) [Example 25D, N-(8-ethyl-4-{[(4-fluorobenzyl)amino]carbonyl}-5-hydroxy-6-oxo-10-oxa-3,7-diazatricyclo[7.2.2.0^2,7]trideca-2,4-dien-1-yl)-N,N′,N′-trimethylethanediamide]",7.2,38,3,98,>111,15,,
"CC1C2CCC(N(C)C(=O)C(=O)N(C)C)(CO2)c2nc(C(=O)NCc3ccc(F)cc3)c(O)c(=O)n21 (single isomer, unassigned) [Example 27D, N-(4-{[(4-fluorobenzyl)amino]carbonyl}-5-hydroxy-8-methyl-6-oxo-10-oxa-3,7-diazatricyclo[7.2.2.0^2,7]trideca-2,4-dien-1-yl)-N,N′,N′-trimethylethanediamide]",6.9,1,1,1,2,11,,
CN(C)C(=O)C(=O)N(C)C12CCC(Cn3c1nc(C(=O)NCc1ccc(F)cc1)c(O)c3=O)C2 (stereo not drawn) [Example 8],,18,13,16,110,,9.2,13
"Cc1nnc(C(=O)N(C)C23CCC(Cn4c2nc(C(=O)NCc2ccc(F)cc2)c(O)c4=O)C3)o1 (stereo not drawn) [Example 7, N-(4-Fluorobenzyl)-3-hydroxy-10-{methyl[(5-methyl-1,3,4-oxadiazol-2-yl)carbonyl]amino}-4-oxo-4,6,7,8,9,10-hexahydro-7,10-methanopyrimido[1,2-a]azepine-2-carboxamide]",,4,2,3,44,,9.6,80
"CC1C2CCC(N(C)C(=O)C(=O)N(C)C)(CO2)c2nc(C(=O)NCc3ccc(F)cc3)c(O)c(=O)n21 (single isomer, unassigned) [Example 27A, N-(4-{[(4-fluorobenzyl)amino]carbonyl}-5-hydroxy-8-methyl-6-oxo-10-oxa-3,7-diazatricyclo[7.2.2.0^2,7]trideca-2,4-dien-1-yl)-N,N′,N′-trimethylethanediamide]",7.5,1,1,1,2,20,,
"CCC1C2CCC(N(C)C(=O)C(=O)N(C)C)(CO2)c2nc(C(=O)NCc3ccc(F)cc3)c(O)c(=O)n21 (single isomer, unassigned) [Example 25A, N-(8-ethyl-4-{[(4-fluorobenzyl)amino]carbonyl}-5-hydroxy-6-oxo-10-oxa-3,7-diazatricyclo[7.2.2.0^2,7]trideca-2,4-dien-1-yl)-N,N′,N′-trimethylethanediamide]",,1,7,1,1,14,6.3,
"CC1C2CCC(NC(=O)C(=O)N(C)C)(CO2)c2nc(C(=O)NCc3ccc(F)cc3)c(O)c(=O)n21 (single isomer, unassigned) [Example 29C, N′-(4-{[(4-Fluorobenzyl)amino]carbonyl}-5-hydroxy-8-methyl-6-oxo-10-oxa-3,7-diazatricyclo[7.2.2.0^2,7]trideca-2,4-dien-1-yl)-N-dimethylethanediamide]",47.8,8,3,17,81,20,,
"CCC1C2CCC(N(C)C(=O)C(=O)N(C)C)(CO2)c2nc(C(=O)NCc3ccc(F)cc3)c(O)c(=O)n21 (single isomer, unassigned) [Example 25C, N-(8-ethyl-4-{[(4-fluorobenzyl)amino]carbonyl}-5-hydroxy-6-oxo-10-oxa-3,7-diazatricyclo[7.2.2.0^2,7]trideca-2,4-dien-1-yl)-N,N′,N′-trimethylethanediamide]",10.8,4,3,6,88,6,,
"CC1C2CCC(NC(=O)C(=O)N(C)C)(CO2)c2nc(C(=O)NCc3ccc(F)cc3)c(O)c(=O)n21 (single isomer, unassigned) [Example 29A, N′-(4-{[(4-Fluorobenzyl)amino]carbonyl}-5-hydroxy-8-methyl-6-oxo-10-oxa-3,7-diazatricyclo[7.2.2.0^2,7]trideca-2,4-dien-1-yl)-N-dimethylethanediamide]",17.9,1,1,1,4,20,,
"CN(C)C(=O)C(=O)N(C)C12CCC(Cn3c1nc(C(=O)NCc1ccc(F)cc1)c(O)c3=O)OC2 (single isomer, unassigned) [Example 23B]",23.6,253,7,136,229,5,,
"COC12CCC(N(C)C(=O)C(=O)N(C)C)(CC1)c1nc(C(=O)NCc3ccc(F)cc3)c(O)c(=O)n1C2 [Example 15, N-(4-{[(4-Fluorobenzyl)amino]carbonyl}-5-hydroxy-9-methoxy-6-oxo-3,7-diazatricyclo[7.2.2.0^2,7]trideca-2,4-dien-1-yl)-N,N′,N′-trimethylethanediamide]",,1,1,2,9,,9.5,23
"CN(C)C(=O)C(=O)N(C)C12CCC(CC1)Cn1c2nc(C(=O)NCc2ccc(F)cc2)c(O)c1=O (single isomer, unassigned) [Example 24A]",,5,1,4,>111,,11.7,15
"CCN(C(=O)C(=O)N(C)C)C12CCC(OC)(CC1)Cn1c2nc(C(=O)NCc2ccc(F)cc2)c(O)c1=O [Example 16, N-Ethyl-N-(4-{[(4-fluorobenzyl)amino]carbonyl}-5-hydroxy-9-methoxy-6-oxo-3,7-diazatricyclo[7.2.2.0^2,7]trideca-2,4-dien-1-yl)-N,N′-dimethylethanediamide]",,1,1,3,15,,11.3,15
